pIC50: −log10 of the molar value.

This note sets out measurements from ChEMBL document CHEMBL3997807, “Isatin-β-thiocarbohydrazones: Microwave-assisted synthesis, antitumor activity and structure-activity relationship” (Eur J Med Chem, 2017).

One assay concerns COS-7. The assay can be described thus: Growth inhibition of African green monkey COS7 cells by MTT assay. It is filed as functional, cell-based. The note with it: Chlorocebus aethiops.
For another assay, the system named is HeLa. The assay can be described thus: Growth inhibition of human HeLa cells by MTT assay. It is filed as functional, cell-based.
The test system of assay [1] is Ehrlich. In words: Antitumor activity against mouse EAC cells implanted in Swiss albino mouse assessed as RBC count in blood at 0.5 mg for 9 days (reference value: 3.69 10^6/mm3). The class given is functional.
The test system of assay [2] is Ehrlich. In words: Antitumor activity against mouse EAC cells implanted in Swiss albino mouse assessed as hemoglobin count in blood at 0.5 mg for 9 days (reference value: 8.15 g/dL). The class given is functional.
The test system of assay [3] is Ehrlich. In words: Antitumor activity against mouse EAC cells implanted in Swiss albino mouse assessed as tumor volume in ascitic fluid at 0.5 mg for 9 days (reference value: 9.85 mL). The class given is functional.
For assay [4], the system named is Ehrlich. In words: Antitumor activity against mouse EAC cells implanted in Swiss albino mouse assessed as increase in mean life span at 0.5 mg for 9 days relative to control. The class given is functional.
The test system of assay [5] is Ehrlich. In words: Antitumor activity against mouse EAC cells implanted in Swiss albino mouse assessed as WBC count in blood at 0.5 mg for 9 days (reference value: 23.96 10^3/mm3). The class given is functional.
For assay [6], the system named is Ehrlich. In words: Antitumor activity against mouse EAC cells implanted in Swiss albino mouse assessed as viable tumor cell count in ascitic fluid at 0.5 mg for 9 days (reference value: 83.2 10^6/100uL). It is filed as functional.

The pIC50 is the negative decadic logarithm of the IC50, by convention in mol/L. `COc1ccc(/C=N/NC(=S)N/N=C2\C(=O)Nc3ccc(C)cc32)c(OC)c1`: the pIC50 in the assay on COS-7 and in the assay on HeLa was below 4.30 in each case.
Usually ILS stands for the gain in survival time of treated over control animals, in per cent. For `O=C1Nc2ccc(Br)cc2/C1=N/NC(=S)N/N=C/c1c(F)cccc1Cl`, the Activity in the assay with Ehrlich [1] stood at 4.09 ×10⁶ /mm3; in the assay on Ehrlich [2] it was 9.96 g/dL; in the assay on Ehrlich [3], 6.7 mL; in the assay on Ehrlich [5], 13.05 ×10³ /mm3; with Ehrlich [6] it was 57.5 ×10⁶ /100microL. The pIC50 with COS-7 was 5.59; in the assay on HeLa it was 5.79. Moreover, in the assay on Ehrlich [4], the ILS is recorded as 72.4%.
For the compound `COc1ccc(/C=N/NC(=S)N/N=C2\C(=O)Nc3ccc(Br)cc32)cc1O`, the Activity in the assay with Ehrlich [1] came out at 3.86 ×10⁶ /mm3; in the assay on Ehrlich [2] it was 9.11 g/dL; in the assay on Ehrlich [3], 7.8 mL; with Ehrlich [5] it was 19.48 ×10³ /mm3; in the assay with Ehrlich [6], 66.78 ×10⁶ /100microL. In addition, the pIC50 was 5.51 with COS-7 and 5.65 in the assay on HeLa. The ILS with Ehrlich [4] is 24.1%.
On to `Cc1ccc2c(c1)/C(=N/NC(=S)N/N=C/c1ccc(Br)cc1)C(=O)N2`, for which the pIC50 with COS-7 and with HeLa was below 4.30 each time.
Take `Cc1ccc2c(c1)/C(=N/NC(=S)N/N=C/c1c(F)cccc1Cl)C(=O)N2`: the Activity is 4.19 ×10⁶ /mm3 with Ehrlich [1]; 10.09 g/dL in the assay on Ehrlich [2]; 6.2 mL with Ehrlich [3]; 12.26 ×10³ /mm3 in the assay with Ehrlich [5]; 51.52 ×10⁶ /100microL with Ehrlich [6]. Further, the values for the pIC50 with COS-7 and in the assay with HeLa were 5.66 and 5.82, respectively. The ILS in the assay on Ehrlich [4] amounted to 72.4%.
Turning to `COc1ccc(/C=N/NC(=S)N/N=C2\C(=O)Nc3ccc(Br)cc32)c(OC)c1`, the pIC50 in the assay on COS-7 and in the assay on HeLa was below 4.30 in each case.
As for `COc1ccc(/C=N/NC(=S)N/N=C2\C(=O)Nc3ccc(C)cc32)cc1O`, the Activity in the assay with Ehrlich [1] came to 4.46 ×10⁶ /mm3; in the assay with Ehrlich [2], 11.15 g/dL; in the assay on Ehrlich [3], 3.26 mL; in the assay on Ehrlich [5], 9.23 ×10³ /mm3; in the assay on Ehrlich [6], 38.75 ×10⁶ /100microL. Besides, the figures for the pIC50 in the assay on COS-7 and in the assay with HeLa were 5.50 and 5.56, respectively. The ILS in the assay with Ehrlich [4] was 110.9%.
Take `O=C1Nc2ccc(Br)cc2/C1=N/NC(=S)N/N=C/c1ccccc1Br`: the pIC50 in the assay on COS-7 and with HeLa was below 4.30 throughout.
For `O=C1Nc2ccc(Br)cc2/C1=N/NC(=S)N/N=C/c1ccc(-c2ccccc2)cc1`, the pIC50 in the assay with COS-7 was below 4.30; in the assay with HeLa, 5.49.
For `Cc1ccc2c(c1)/C(=N/NC(=S)N/N=C/c1cc3ccccc3c3ccccc13)C(=O)N2` the same measures were below 4.30 and below 4.30.
Take `O=C1Nc2ccc(Br)cc2/C1=N/NC(=S)N/N=C/c1ccc(Br)cc1`: the negative logarithm of the IC50 (pIC50) in the assay with COS-7 is 5.29; in the assay on HeLa, 5.33.
For `Cc1ccc(O)c(/C=N/NC(=S)N/N=C2\C(=O)Nc3ccc(Br)cc32)c1`, the pIC50 in the assay with COS-7 and with HeLa was below 4.30 each time.
With `Cc1ccc2c(c1)/C(=N/NC(=S)N/N=C/c1c(Cl)cccc1Cl)C(=O)N2`, the values for the pIC50 in the assay on COS-7 and in the assay with HeLa were 5.41 and 5.75, respectively.
For `Cc1ccc2c(c1)/C(=N/NC(=S)N/N=C/c1ccc3ccccc3c1)C(=O)N2` the same measures were below 4.30 and below 4.30.
The matching figures for `O=C1Nc2ccc(Br)cc2/C1=N/NC(=S)N/N=C/c1ccc2ccccc2c1`: below 4.30 and below 4.30.
Regarding `Cc1ccc2c(c1)/C(=N/NC(=S)N/N=C/c1ccccn1)C(=O)N2`, the Activity turned out to be 5.28 ×10⁶ /mm3 with Ehrlich [1]; 12.93 g/dL with Ehrlich [2]; 2.52 mL in the assay with Ehrlich [3]; 7.89 ×10³ /mm3 with Ehrlich [5]; 24.22 ×10⁶ /100microL in the assay with Ehrlich [6]. For the same compound, the figures for the pIC50 with COS-7 and with HeLa were 5.67 and 5.50, respectively. Further, in the assay with Ehrlich [4], the ILS is given as 189.6%.
For `O=C1Nc2ccc(Br)cc2/C1=N/NC(=S)N/N=C/c1c(Cl)cccc1Cl`, the pIC50 in the assay on COS-7 is 5.17; in the assay on HeLa, 5.45.
The matching figures for `Cc1ccc2c(c1)/C(=N/NC(=S)N/N=C/c1ccccc1Br)C(=O)N2`: below 4.30 and below 4.30.
Regarding `Cc1ccc(O)c(/C=N/NC(=S)N/N=C2\C(=O)Nc3ccc(C)cc32)c1`, the pIC50 in the assay with COS-7 and in the assay on HeLa was below 4.30 each time.
As for `O=C1Nc2ccc(Br)cc2/C1=N/NC(=S)N/N=C/c1cc2ccccc2c2ccccc12`, the pIC50 in the assay on COS-7 and in the assay on HeLa was below 4.30 throughout.
As to `Cc1ccc2c(c1)/C(=N/NC(=S)N/N=C/c1ccc(-c3ccccc3)cc1)C(=O)N2`, the pIC50 in the assay with COS-7 and in the assay on HeLa was below 4.30 in each case.
Regarding `COc1cccc2c1C(=O)c1c(O)c3c(c(O)c1C2=O)C[C@@](O)(C(=O)CO)C[C@@H]3O[C@H]1C[C@H](N)[C@H](O)[C@H](C)O1` [DOXORUBICIN], the pIC50 in the assay on COS-7 is 5.52; with HeLa, 5.69.
On to `O=c1[nH]cc(F)c(=O)[nH]1` [FLUOROURACIL], for which the Activity came to 5.21 ×10⁶ /mm3 with Ehrlich [1]; 12.96 g/dL in the assay on Ehrlich [2]; 1.6 mL in the assay on Ehrlich [3]; 8.86 ×10³ /mm3 with Ehrlich [5]; 20.17 ×10⁶ /100microL with Ehrlich [6]. Moreover, in the assay with Ehrlich [4], the increase in lifespan (ILS) was 237.9%.
